How the values were obtained:
[1] = system: T47D cells; assay: Cellular growth inhibition assay for T47D cells, CellTiter-Glo; format: cell-based, human; settings: Homo sapiens, T47D, 72 h, 72 hours treatment, CellTiter-Glo 2.0 cell viability
Outline: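 Cells are plated at 3000/well and allowed 24 h before treatment. Test compound in medium containing 0.5% DMSO is then added, with DMSO-only wells as negative control, and plates are incubated 72 h at 37 °C. ATP luminescence (CellTiter-Glo 2.0) is then fitted to four parameters to derive GI50.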

[2] = system: VCaP cells; assay: Cellular growth inhibition assay for VCaP cells, CellTiter-Glo; format: cell-based, human; settings: Homo sapiens, VCaP, 72 h, 72 hours treatment, CellTiter-Glo 2.0
Outline: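 GI50 values come from four-parameter curve fits of luminescence data normalized to a zero baseline. Compound, in medium with 0.5% DMSO, was added one day after plating and left for 72 h before CellTiter-Glo 2.0 addition.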

[3] = system: T-Rex 293 cell line SC3 cells having increased expression of androgen receptor protein due to exposure to doxycycline; assay: Cellular growth inhibition, T-Rex 293 SC3 cells with doxycycline (androgen receptor induced), CellTiter-Glo; format: cell-based; settings: 72 h, T-Rex 293 SC3 cells with 10 ng/mL doxycycline (increased androgen receptor expression)
Outline: (§1)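 Cells of clone SC3 are seeded in charcoal-dextran-stripped serum medium with or without 10 ng/mL doxycycline to induce wild-type androgen receptor. After 24 h, serial compound dilutions are added at 0.5% DMSO and incubated 72 h at 37 °C. CellTiter-Glo 2.0 measures viability, giving GI50 values.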

[4] = system: T-Rex 293 cell line SC3 cells lacking increased expression of androgen receptor protein; assay: Cellular growth inhibition, T-Rex 293 SC3 cells without doxycycline, CellTiter-Glo; format: cell-based; settings: 72 h, T-Rex 293 SC3 cells not exposed to doxycycline, CellTiter-Glo 2.0
Outline: as §1

Row | Structure (SMILES) | GI50 [1] [µM] | GI50 [2] [µM] | GI50 [3] [µM] | GI50 [4] [µM]
1 | Cc1sc2c(c1C)C(c1ccc(CCOC3CCN(c4ncc(C(=O)N[C@H]5C(C)(C)[C@H](Oc6ccc(C#N)c(Cl)c6)C5(C)C)cn4)CC3)cc1)=NC(Cc1ncco1)c1nnc(C)n1-2 (stereo partly shown) [Compound I-140] | < 0.5 | < 0.5 | < 0.5 | < 0.5
2 | Cc1sc2c(c1C)C(c1ccc(CN3CC4(CCN(c5ncc(C(=O)N[C@H]6C(C)(C)[C@H](Oc7ccc(C#N)c(Cl)c7)C6(C)C)cn5)CC4)C3)cc1)=N[C@@H](Cc1ncco1)c1nnc(C)n1-2 [Compound I-141] | > 3 | < 0.5 | < 0.5 | 0.5 to 1.5
3 | Cc1sc2c(c1C)C(c1ccc(CN3CC[C@@]4(CCCN(c5ncc(C(=O)N[C@H]6C(C)(C)[C@H](Oc7ccc(C#N)c(Cl)c7)C6(C)C)cn5)C4)C3)cc1)=N[C@@H](Cc1ncco1)c1nnc(C)n1-2 [Compound I-144] | 0.5 to 1.5 | < 0.5 | < 0.5 | < 0.5
4 | Cc1sc2c(c1C)C(c1ccc(CN3CC[C@]4(CCCN(c5ncc(C(=O)N[C@H]6C(C)(C)[C@H](Oc7ccc(C#N)c(Cl)c7)C6(C)C)cn5)C4)C3)cc1)=N[C@@H](Cc1ncco1)c1nnc(C)n1-2 [Compound I-145] | < 0.5 | < 0.5 | < 0.5 | < 0.5
5 | Cc1sc2c(c1C)C(c1ccc(CN3CCC4(CCCN(c5ncc(C(=O)N[C@H]6C(C)(C)[C@H](Oc7ccc(C#N)c(Cl)c7)C6(C)C)cn5)C4)C3)cc1)=N[C@H](Cc1ncco1)c1nnc(C)n1-2 (stereo partly shown) [Compound I-146] | < 0.5 | < 0.5 | < 0.5 | 0.5 to 1.5
6 | Cc1sc2c(c1C)C(c1ccc(CCN3CCC4(CCCN(c5ncc(C(=O)N[C@H]6C(C)(C)[C@H](Oc7ccc(C#N)c(Cl)c7)C6(C)C)cn5)C4)C3)cc1)=N[C@@H](Cc1ncco1)c1nnc(C)n1-2 (stereo partly shown) [Compound I-147] | < 0.5 | < 0.5 | < 0.5 | 0.5 to 1.5
7 | Cc1sc2c(c1C)C(c1ccc(CN3CC4(CCCN(c5ncc(C(=O)N[C@H]6C(C)(C)[C@H](Oc7ccc(C#N)c(Cl)c7)C6(C)C)cn5)C4)C3)cc1)=N[C@@H](Cc1ncco1)c1nnc(C)n1-2 [Compound I-148] | < 0.5 | < 0.5 | < 0.5 | < 0.5
8 | Cc1sc2c(c1C)C(c1ccc(CN3CC4(CCCN(c5ncc(C(=O)N[C@H]6C(C)(C)[C@H](Oc7ccc(C#N)c(Cl)c7)C6(C)C)cn5)C4)C3)cc1)=N[C@H](Cc1ncco1)c1nnc(C)n1-2 [Compound I-149] | > 3 | 0.5 to 1.5 | < 0.5 | > 3
9 | Cc1sc2c(c1C)C(c1ccc(CC3CC4(C3)CN(c3ncc(C(=O)N[C@H]5C(C)(C)[C@H](Oc6ccc(C#N)c(Cl)c6)C5(C)C)cn3)C4)cc1)=N[C@H](Cc1ncco1)c1nnc(C)n1-2 [Compound I-152] | > 3 | > 3 | < 0.5 | > 3
10 | Cc1sc2c(c1C)C(c1ccc(CC3CN(C4CCN(c5ncc(C(=O)N[C@H]6C(C)(C)[C@H](Oc7ccc(C#N)c(Cl)c7)C6(C)C)cn5)C4)C3)cc1)=N[C@@H](Cc1ncco1)c1nnc(C)n1-2 (stereo partly shown) [Compound I-154] | < 0.5 | < 0.5 | < 0.5 | < 0.5
11 | Cc1sc2c(c1C)C(c1ccc(C[C@H]3C[C@H]([C@H]4CCCN(c5ncc(C(=O)N[C@H]6C(C)(C)[C@H](Oc7ccc(C#N)c(Cl)c7)C6(C)C)cn5)C4)C3)cc1)=N[C@@H](Cc1ncco1)c1nnc(C)n1-2 [Compound I-159] | > 3 | > 3 | > 3 | > 3
12 | Cc1sc2c(c1C)C(c1ccc(C[C@H]3C[C@@H]([C@H]4CCCN(c5ncc(C(=O)N[C@H]6C(C)(C)[C@H](Oc7ccc(C#N)c(Cl)c7)C6(C)C)cn5)C4)C3)cc1)=N[C@@H](Cc1ncco1)c1nnc(C)n1-2 [Compound I-160] | 1.5 to 3 | > 3 | > 3 | > 3
13 | Cc1sc2c(c1C)C(c1ccc(C[C@H]3C[C@H]([C@@H]4CCCN(c5ncc(C(=O)N[C@H]6C(C)(C)[C@H](Oc7ccc(C#N)c(Cl)c7)C6(C)C)cn5)C4)C3)cc1)=N[C@@H](Cc1ncco1)c1nnc(C)n1-2 [Compound I-162] | < 0.5 | < 0.5 | < 0.5 | < 0.5
14 | Cc1sc2c(c1C)C(c1ccc(C[C@@H]3CC[C@@]4(CCCN(c5ncc(C(=O)N[C@H]6C(C)(C)[C@H](Oc7ccc(C#N)c(Cl)c7)C6(C)C)cn5)C4)C3)cc1)=N[C@@H](Cc1ncco1)c1nnc(C)n1-2 [Compound I-164] | 0.5 to 1.5 | 0.5 to 1.5 | < 0.5 | > 3
15 | Cc1sc2c(c1C)C(c1ccc(OCCC3CCN(c4ncc(C(=O)N[C@H]5C(C)(C)[C@H](Oc6ccc(C#N)c(Cl)c6)C5(C)C)cn4)CC3)cc1)=NC(Cc1ncco1)c1nnc(C)n1-2 (stereo partly shown) [Compound I-167] | 0.5 to 1.5 | < 0.5 | < 0.5 | 0.5 to 1.5

Further lines, with some results ahead:

Row | GI50 [1] [µM] | GI50 [2] [µM] | Structure (SMILES) | GI50 [3] [µM] | GI50 [4] [µM]
16 | > 3 | > 3 | Cc1sc2c(c1C)C(c1ccc(CC3CC4(CCN(c5ncc(C(=O)N[C@H]6C(C)(C)[C@H](Oc7ccc(C#N)c(Cl)c7)C6(C)C)cn5)CC4)C3)cc1)=N[C@@H](Cc1ncco1)c1nnc(C)n1-2 [Compound I-142] | < 0.5 | > 3
17 | > 3 | < 0.5 | Cc1sc2c(c1C)C(c1ccc(C3CC3C3CC4(CCN(c5ncc(C(=O)N[C@H]6C(C)(C)[C@H](Oc7ccc(C#N)c(Cl)c7)C6(C)C)cn5)CC4)C3)cc1)=N[C@H](Cc1ncco1)c1nnc(C)n1-2 (stereo partly shown) [Compound I-150] | < 0.5 | > 3
18 | < 0.5 | < 0.5 | Cc1sc2c(c1C)C(c1ccc(CC3CC4(C3)CN(c3ncc(C(=O)N[C@H]5C(C)(C)[C@H](Oc6ccc(C#N)c(Cl)c6)C5(C)C)cn3)C4)cc1)=N[C@@H](Cc1ncco1)c1nnc(C)n1-2 [Compound I-151] | < 0.5 | < 0.5
19 | > 3 | > 3 | Cc1sc2c(c1C)C(c1ccc(C[C@H]3C[C@@]4(CCCN(c5ncc(C(=O)N[C@H]6C(C)(C)[C@H](Oc7ccc(C#N)c(Cl)c7)C6(C)C)cn5)C4)C3)cc1)=N[C@@H](Cc1ncco1)c1nnc(C)n1-2 [Compound I-156] | < 0.5 | > 3
20 | 0.5 to 1.5 | 0.5 to 1.5 | Cc1sc2c(c1C)C(c1ccc(C[C@H]3C[C@]4(CCCN(c5ncc(C(=O)N[C@H]6C(C)(C)[C@H](Oc7ccc(C#N)c(Cl)c7)C6(C)C)cn5)C4)C3)cc1)=N[C@@H](Cc1ncco1)c1nnc(C)n1-2 [Compound I-157] | < 0.5 | > 3
21 | 1.5 to 3 | > 3 | Cc1sc2c(c1C)C(c1ccc(C[C@H]3CCC4(CCCN(c5ncc(C(=O)N[C@H]6C(C)(C)[C@H](Oc7ccc(C#N)c(Cl)c7)C6(C)C)cn5)C4)C3)cc1)=N[C@@H](Cc1ncco1)c1nnc(C)n1-2 (stereo partly shown) [Compound I-163] | < 0.5 | > 3
22 | 1.5 to 3 | 0.5 to 1.5 | Cc1sc2c(c1C)C(c1ccc(C[C@@H]3CC[C@]4(CCCN(c5ncc(C(=O)N[C@H]6C(C)(C)[C@H](Oc7ccc(C#N)c(Cl)c7)C6(C)C)cn5)C4)C3)cc1)=N[C@@H](Cc1ncco1)c1nnc(C)n1-2 [Compound I-165] | < 0.5 | > 3

— patent US20260062422A1 (Halda Therapeutics OpCo, Inc., priority 2022, published 2026)
